Type in all cases: cell-based
For assay [1], the target named is T1, ASBT (Homo sapiens, UniProt Q12908).
T1 construct: The full-length open reading frames of NTCP, ASBT, and SOAT were cloned; expressed in transfected cells; host or cells: Flp-In T-REX HEK293 (ASBT-HEK293), tetracycline-induced
T1 sequence (Q12908 1-348): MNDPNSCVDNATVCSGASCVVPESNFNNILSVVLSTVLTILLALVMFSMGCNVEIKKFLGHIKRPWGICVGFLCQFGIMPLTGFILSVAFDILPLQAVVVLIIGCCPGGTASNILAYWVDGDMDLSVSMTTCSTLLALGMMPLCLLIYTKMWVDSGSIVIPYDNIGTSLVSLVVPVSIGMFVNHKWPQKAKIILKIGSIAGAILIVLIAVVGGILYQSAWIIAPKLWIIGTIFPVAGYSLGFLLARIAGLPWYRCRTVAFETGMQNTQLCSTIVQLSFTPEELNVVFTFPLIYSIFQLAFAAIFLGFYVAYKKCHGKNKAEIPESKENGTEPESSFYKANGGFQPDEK
Put plainly: Transport kinetics (concentration-dependent uptake) in ASBT-HEK293 cells. To be noted: uptake via ASBT, 1 min, 37°C. How it is done: (§1) Uptake experiments were initiated by replacing the preincubation buffer by 500 μL transport buffer containing the radiolabeled test compound and were performed at 37°C. Transport was terminated by removing the transport buffer and washing five-times with ice-cold PBS. Cell monolayers were lysed in 1 N NaOH with 0.1% SDS and the cell-associated radioactivity was determined by liquid scintillation counting.
(§2) FIGURE 2 NTCP, ASBT, and SOAT transport kinetics. Concentration-dependent uptake was analyzed in NTCP-HEK293, ASBT-HEK293, and SOAT-HEK293 cells for the indicated substrates at increasing substrate concentrations. Stably transfected HEK293 cells were pretreated with 1 μg/ml tetracycline to induce carrier expression. HEK293-FlpIn cells were used as control. Uptake was analyzed for 1 min at 37°C. Afterward, the medium was removed and each cell monolayer was washed and processed to determine the protein content and cell-associated radioactivity. Specific uptake was calculated by subtracting non-specific uptake of the HEK293-FlpIn control cells (open squares) from uptake into carrier-overexpressing HEK293 cells (filled squares) and is shown by broken lines. The values represent means ± SD of duplicate experiments, each with triplicate determinations (n = 6).

A further assay deals with T2, NTCP (Homo sapiens, UniProt Q14973).
T2 sequence (Q14973 1-349): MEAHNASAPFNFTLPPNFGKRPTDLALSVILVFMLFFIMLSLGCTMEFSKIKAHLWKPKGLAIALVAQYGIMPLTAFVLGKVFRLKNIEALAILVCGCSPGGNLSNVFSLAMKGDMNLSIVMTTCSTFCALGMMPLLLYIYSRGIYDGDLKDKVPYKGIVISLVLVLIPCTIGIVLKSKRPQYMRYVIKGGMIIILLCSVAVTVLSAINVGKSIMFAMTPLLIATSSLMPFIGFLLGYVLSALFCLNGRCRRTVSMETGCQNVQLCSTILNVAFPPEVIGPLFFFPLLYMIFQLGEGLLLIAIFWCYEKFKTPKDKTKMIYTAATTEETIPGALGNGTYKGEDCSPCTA
The assay can be described thus: Transport kinetics (concentration-dependent uptake) in NTCP-HEK293 cells. On the set-up: The full-length open reading frames of NTCP, ASBT, and SOAT were cloned; expressed in transfected cells; host or cells: Flp-In T-REX HEK293 (NTCP-HEK293), tetracycline-induced. The settings on record: uptake via NTCP, 1 min, 37°C. How it is done: as §1, §2

Assay [2] has as its target T1, ASBT. Put plainly: Transport inhibition in ASBT-HEK293 cells. The settings on record: substrate inhibitors, 1 min after 5 min preincubation. As for the experimental part:
Cells were washed three times with PBS and were preincubated with the respective inhibitor in sodium transport buffer for 5 min at 37°C. Uptake was initiated by adding the respective radiolabeled substrate to the well and incubating for a fixed time as indicated in the figures at 37°C. Transport was terminated by removing the transport buffer and washing five-times with ice-cold PBS. Cell monolayers were lysed in 1 N NaOH with 0.1% SDS and the cell-associated radioactivity and protein content was determined as described above. For uptake inhibition with the myr-preS1 peptide the sodium transport buffer contained additionally MEM-amino acid solution (ThermoFisher) at 1:50 dilution.
All transport or inhibition graphs were generated with GraphPad Prism 6.0 (GraphPad). Determination of IC50 values was done by nonlinear regression analysis using the equation log (inhibitor) vs. response settings. If not stated otherwise in the legends all data represent means ± SD of at least triplicate determinations of representative experiments.
FIGURE 3 Inhibition of NTCP, ASBT, and SOAT with substrate inhibitors. Transport of [^3H]TC, [^3H]TLC, and [^3H]DHEAS was analyzed in NTCP-HEK293, ASBT-HEK293, and SOAT-HEK293 cells in the presence of the substrate inhibitors TC, TLC, and DHEAS at increasing concentrations ranging from 100 nM till 1000 µM. After 5 min of preincubation with the respective inhibitory compound, 200 nM [^3H]TLC, [^3H]TC or [^3H]DHEAS were added for additional 1 min and the cell lysates were analyzed by liquid scintillation counting. Unspecific uptake of HEK293-FlpIn cells was set to 0%. Carrier-specific uptake without inhibitor was set to 100%.
Transport of [^3H]TC, [^3H]TLC, and [^3H]DHEAS was analyzed in NTCP-HEK293, ASBT-HEK293, and SOAT-HEK293 cells in the presence of different supposed non-substrate triterpenoid inhibitors as indicated at increasing concentrations ranging from 100 nM till 1000 µM. After 5 min of preincubation with the respective inhibitory compound, 1 µM [^3H]TLC, [^3H]TC or [^3H]DHEAS were added for additional 10 min at 37°C and the cell lysates were analyzed by liquid scintillation counting. Experiments performed without inhibitor were set to 100%. Means of negative controls were subtracted to calculate net transport rates (expressed as percentage of control). Data represent means ± SD of quadruplicate determinations of representative experiments.

Counter-ions that a name gives are not always drawn. Like-named read-outs stand apart in the source and are kept apart here. Bounds are passed on as bounds.

`C[C@H](CCC(=O)NCCS(=O)(=O)O)[C@H]1CC[C@H]2[C@@H]3[C@H](O)C[C@@H]4C[C@H](O)CC[C@]4(C)[C@H]3C[C@H](O)[C@]12C` [Taurocholic acid]: the “Apparent K m” value on ASBT [1] came out at 14.7 ± 1.5 µM; at NTCP, 13.1 ± 0.8 µM. Besides, the V max on ASBT [1] is 1821 ± 75.1 pmol/mg protein/min; on NTCP, 2395 ± 59 pmol/mg protein/min.
Regarding `C[C@H](CCC(=O)NCCS(=O)(=O)O)[C@H]1CC[C@H]2[C@@H]3CC[C@@H]4C[C@H](O)CC[C@]4(C)[C@H]3CC[C@]12C` [Taurolithocholic acid], the “Apparent K m” value on ASBT [1] came to 5.9 ± 1.8 µM; at NTCP, 18.4 ± 2.3 µM. Also, the V max on ASBT [1] came out at 1585 ± 99.7 pmol/mg protein/min; on NTCP it was 5915 ± 189 pmol/mg protein/min. Moreover, the IC50 was 1.9 µM on ASBT [2] (200 nM [3H]TC, read-out: ASBT IC50, substrate [3H]TC) and 4 µM on ASBT [2] (200 nM [3H]TLC, read-out: ASBT IC50, substrate [3H]TLC).
`C[C@]12CC[C@H](OS(=O)(=O)O)CC1=CC[C@@H]1[C@@H]2CC[C@]2(C)C(=O)CC[C@@H]12` [DHEAS, Dehydroepiandrosterone sulfate] yielded an IC50 at ASBT [2] (ASBT IC50, substrate [3H]TC, 200 nM [3H]TC) of 453 µM. The IC50 against ASBT [2] (ASBT IC50, substrate [3H]TLC, 200 nM [3H]TLC) is above 1000 µM. On NTCP, the “Apparent K m” value was 56.1 ± 8.0 µM and the V max is 2198 ± 101.7 pmol/mg protein/min.

The IC50 is the midpoint of a concentration-inhibition curve.

Values taken from publication PMC8165160, “Substrate Specificities and Inhibition Pattern of the Solute Carrier Family 10 Members NTCP, ASBT and SOAT” (Frontiers in Molecular Biosciences, 2021).
